Measurements as given in patent US11358969B2, “Indole AHR inhibitors and uses thereof” (Ikena Oncology, Inc., priority 2017, dated 2022).
pIC50: −log10 of the molar value.

How the values were obtained:
AHR = biological target: T1, AHR (UniProt P35869); test: DRE-Luciferase Reporter Assay (Alternate Method) (Example 1B); assay type: cell-based, murine or human; details: cell line and AHR activating ligand not specified
T1 construct: IC50
T1 sequence (P35869 1-848): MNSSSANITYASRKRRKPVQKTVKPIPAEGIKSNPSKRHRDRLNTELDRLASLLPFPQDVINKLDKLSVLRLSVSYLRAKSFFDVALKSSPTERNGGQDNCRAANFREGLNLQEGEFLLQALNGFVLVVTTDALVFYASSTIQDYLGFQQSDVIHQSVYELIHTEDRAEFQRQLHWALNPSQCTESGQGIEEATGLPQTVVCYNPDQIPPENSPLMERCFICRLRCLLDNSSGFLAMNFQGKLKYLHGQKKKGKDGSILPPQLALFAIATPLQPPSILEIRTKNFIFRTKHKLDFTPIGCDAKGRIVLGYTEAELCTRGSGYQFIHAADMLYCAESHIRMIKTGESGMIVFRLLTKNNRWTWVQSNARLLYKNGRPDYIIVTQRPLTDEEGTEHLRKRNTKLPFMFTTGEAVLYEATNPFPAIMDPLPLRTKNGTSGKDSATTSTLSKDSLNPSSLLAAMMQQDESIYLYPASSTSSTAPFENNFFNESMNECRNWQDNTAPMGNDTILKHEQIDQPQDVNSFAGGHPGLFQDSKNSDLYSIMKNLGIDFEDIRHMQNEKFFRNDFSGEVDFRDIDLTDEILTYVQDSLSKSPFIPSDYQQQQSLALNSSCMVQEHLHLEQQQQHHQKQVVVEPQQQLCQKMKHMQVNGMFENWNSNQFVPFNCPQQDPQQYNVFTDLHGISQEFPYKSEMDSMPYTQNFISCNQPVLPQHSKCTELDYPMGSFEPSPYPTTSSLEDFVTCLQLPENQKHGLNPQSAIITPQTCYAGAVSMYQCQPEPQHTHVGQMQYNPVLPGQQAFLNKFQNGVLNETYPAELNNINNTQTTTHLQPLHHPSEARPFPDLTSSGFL

[1] = In Vitro Mouse liver S9 Metabolic Stability Assay (Example 1D); assay type: in vitro ADME; details: CD-1 mouse liver S9, 1 μM compound, 1 mg/mL S9 protein, 37° C., NADPH regenerating system, UDPGA, PAPS
Protocol: CD-1 mouse liver S9 were purchased from Corning or XenoTech LLC or BioreclamationIVT, LLC or WuXi prepared. The cells were stored at −80° C. in a freezer before use. β-Nicotinamide adenine dinucleotide phosphate (NADP), Glucose 6-phosphate (G6P), Glucose 6-phosphate dehydrogenase from yeast (G6PDH), Uridine 5′-diphophoglucuronic acid trisodium salt (UDPGA) and Adenosine 3′-phosphate 5′-phosphosulfate lithium salt hydrate (PAPS) were available commercially from Sigma.
Compounds were diluted in DMSO to make 10 mM stock solution. 5 μL of this stock solution (10 mM, DMSO) was diluted with 45 μL DMSO and 450 μL 50% Methanol/Water to make intermediate stock solution (100 μM, 45% MeOH, 10% DMSO). 50 μL of intermediate stock solution was diluted with 450 μL 100 mM phosphate buffer to make a final stock solution (10 μM, 4.5% MeOH, 1% DMSO). 10 uL of final stock solution was added to 90 uL liver S9 system (final concentration of 1 μM, 0.45% MeOH, 0.1% DMSO).
Test compounds were incubated at 37° C. with liver S9 (pooled from multiple donors) at 1 μM in the presence of a NADPH regenerating system, UDPGA, and PAPS at 1 mg/mL S9 protein. Time samples (0 and 60 minutes) were removed and immediately mixed with cold acetonitrile containing internal standard (IS). Samples were analyzed by LC/MS/MS and disappearance of test compounds were assessed based on peak area ratios of analyte /IS (no standard curve). All samples were injected and analyzed using LC-MS/MS. The analyte/internal standard peak area ratios were converted to percentage remaining (% Remaining) with the following equation: % Remaining at 60 min=(Peak area ratio of analyte to IS at 60 min/Peak area ratio of analyte to IS at t=0)×100%. Table 5. Mouse Stability Data According to Example 1D.

[2] = Mouse Pharmacokinetic Study (Example 1C); assay type: in vivo; details: mouse, plasma, CD-1 mice; for Vd: read-out: Vdss
Summary of the method: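 CD-1 mice dosed intravenously or by oral gavage; plasma sampled at 0.167, 0.5, 1, 2, 4, 6, 12 and 24 h post-dose. Samples analyzed by LC/MS/MS (MRM, positive mode) against a plasma standard curve of 1.0–3000 ng/mL; PK parameters from non-compartmental analysis.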

Row | Structure (SMILES) | pIC50 (AHR) | Mouse S9 Stability: % Remaining After 60 Minutes [1] [%] | bioavailability ([2]; po, 30 mg/kg) [%] | AUC(0-inf) ([2]; iv, 3 mg/kg) [µg·h/mL] | AUC(0-t) ([2]; iv, 3 mg/kg) [µg·h/mL] | clearance ([2]; iv, 3 mg/kg) [L/h/kg] | half-life ([2]; iv, 3 mg/kg) [h] | Vd ([2]; iv, 3 mg/kg) [L/kg] | AUC(0-inf) ([2]; po, 30 mg/kg) [µg·h/mL] | AUC(0-t) ([2]; po, 30 mg/kg) [µg·h/mL] | Cmax ([2]; po, 30 mg/kg) [µg/mL] | Tmax ([2]; po, 30 mg/kg) [h] | half-life ([2]; po, 30 mg/kg) [h]
1 | CN(C)c1cnn2c(NCCc3c[nH]c4ccccc34)cc(-c3cncc(F)c3)nc12 [I-203, 5-(5-fluoro-3-pyridyl)-N7-[2-(1H-indol-3-yl)ethyl]-N3,N3-dimethyl-pyrazolo[1,5-a]pyrimidine-3,7-diamine] | > 6.30 | 0 | 12 | 0.565 | 0.555 | 5.31 | 2.3 | 5.8 | 0.657 | 0.656 | 0.604 | 0.2 | 0.7
2 | Fc1cncc(-c2cc(OC3CCCC3)nc(NCCc3c[nH]c4ccccc34)n2)c1 [I-59, 4-(Cyclopentoxy)-6-(5-fluoro-3-pyridyl)-N-[2-(1H-indol-3-yl)ethyl]pyrimidin-2-amine] | > 6.30 | 11 | 22 | 0.949 | 0.925 | 3.18 | 6.6 | 11.2 | 2.13 | 2.11 | 0.719 | 0.5 | 4.3
3 | C[C@@H](O)c1cnn2c(N[C@@H]3CCc4[nH]c5ccccc5c4C3)cc(-c3cncc(F)c3)nc12 [I-198a, (1R)-1-[5-(5-Fluoro-3-pyridyl)-7-[[(3R)-2,3,4,9-tetrahydro-1H-carbazol-3-yl]amino]pyrazolo[1,5-a]pyrimidin-3-yl]ethanol] | > 6.30 | 30 | 52 | 0.772 | 0.765 | 3.89 | 4.3 | 12.1 | 4.05 | 3.96 | 0.721 | 1 | 4.2
4 | Fc1cncc(-c2nc(N[C@@H]3CCc4[nH]c5ccccc5c4C3)n3ncc(Br)c3n2)c1 [I-154, (3R)—N-[8-Bromo-2-(5-fluoro-3-pyridyl)pyrazolo[1,5-a][1,3,5]triazin-4-yl]-2,3,4,9-tetrahydro-1H-carbazol-3-amine] | > 6.30 | 13 | 39 | 3.03 | 2.41 | 0.99 | 12 | 13.7 | 11.2 | 9.36 | 0.84 | 2 | 9.6
5 | Cc1cnn2c(N[C@H]3Cc4ccc(O)cc4C3)cc(-c3cncc(F)c3)nc12 [I-219, (2S)-2-[[5-(5-fluoro-3-pyridyl)-3-methyl-pyrazolo[1,5-a]pyrimidin-7-yl]amino]indan-5-ol] | > 6.30 | 5 | 2 | 0.682 | 0.678 | 4.4 | 0.7 | 2.4 | 0.215 | 0.132 | 0.0489 | 0.2 | 
6 | CN(C)c1cnn2c(N[C@H]3Cc4ccc(O)cc4C3)cc(-c3cncc(F)c3)nc12 [I-204b, (2S)-2-[[3-(dimethylamino)-5-(5-fluoro-3-pyridyl)pyrazolo[1,5-a]pyrimidin-7-yl]amino]indan-5-ol] | > 6.30 | 0 | 2 | 0.455 | 0.454 | 6.6 | 0.9 | 4 | 0.067 | 0.063 | 0.055 | 0.2 | 3.2
